The text below walks through data of ChEMBL document CHEMBL5223089, “Cyclosporin Structure and Permeability: From A to Z and Beyond” (J Med Chem, 2021).

Data set [1] is described as follows: Permeability of compound by PAMP assay. As to conditions: not told; read-out: permeability. The data set is classed as ADME.
Data set [2] is filed under the species Homo sapiens. Kind of data set: Binding affinity to mCherry labelled that cyclophilin (unknown origin) relative to control.
Data set [3] is filed under the species Homo sapiens. Kind of data set: Binding affinity to mCherry labelled that cyclophilin (unknown origin) assessed as fold change.

For `C/C=C/C[C@@H](C)[C@@H](O)[C@H]1C(=O)N[C@@H]([C@@H](C)O)C(=O)N(C)CC(=O)N(C)[C@@H](CC(C)C)C(=O)N[C@@H](C(C)C)C(=O)N(C)[C@@H](CC(C)C)C(=O)N[C@@H](C)C(=O)N[C@H](C)C(=O)N(C)[C@@H](CC(C)C)C(=O)N(C)[C@@H](CC(C)C)C(=O)N(C)[C@@H](C(C)C)C(=O)N1C`, the Papp in data set [1] came to 2.8 ×10⁻⁶ cm/s.

Turning to `C/C=C/C[C@@H](C)[C@@H](OC(C)=O)[C@H]1C(=O)N[C@@H](CC)C(=O)N(C)CC(=O)N(C)[C@@H](CC(C)C)C(=O)N[C@@H](C(C)C)C(=O)N(C)[C@@H](CC(C)C)C(=O)N[C@@H](C)C(=O)N[C@H](C)C(=O)N(C)[C@@H](CC(C)C)C(=O)N(C)[C@@H](CC(C)C)C(=O)N(C)[C@@H](C(C)C)C(=O)N1C`, the Papp in data set [1] was found to be 3.3 ×10⁻⁶ cm/s.

Consider `C/C=C/C[C@@H](C)[C@@H](O)[C@H]1C(=O)N[C@@H](CC)C(=O)N(C)CC(=O)N[C@@H](CC(C)C)C(=O)N[C@@H](C(C)C)C(=O)N(C)[C@@H](CC(C)C)C(=O)N[C@@H](C)C(=O)N[C@H](C)C(=O)N(C)[C@@H](CC(C)C)C(=O)N(C)[C@@H](CC(C)C)C(=O)N(C)[C@@H](C(C)C)C(=O)N1C`, for which the Papp in data set [1] is 2.5 ×10⁻⁶ cm/s.

In the case of `C/C=C/C[C@@H](C)[C@@H](O)[C@H]1C(=O)N[C@@H](CC)C(=O)N(C)CC(=O)N[C@@H](CC(C)C)C(=O)N[C@@H](C(C)C)C(=O)N[C@@H](CC(C)C)C(=O)N[C@@H](C)C(=O)N[C@H](C)C(=O)N(C)[C@@H](CC(C)C)C(=O)N(C)[C@@H](CC(C)C)C(=O)N(C)[C@@H](C(C)C)C(=O)N1C`, in data set [1], the Papp was 4.1 ×10⁻⁶ cm/s.

In the case of `C/C=C/C[C@@H](C)[C@@H](O)[C@H]1C(=O)N[C@@H](C)C(=O)N(C)CC(=O)N(C)[C@@H](CC(C)C)C(=O)N[C@@H](C(C)C)C(=O)N(C)[C@@H](CC(C)C)C(=O)N[C@@H](C)C(=O)N[C@H](C)C(=O)N(C)[C@@H](CC(C)C)C(=O)N(C)[C@@H](CC(C)C)C(=O)N(C)[C@@H](C(C)C)C(=O)N1C`, in data set [1], the Papp stood at 7.9 ×10⁻⁶ cm/s.

Consider `C/C=C/C[C@@H](C)[C@@H](O)[C@H]1C(=O)N[C@@H](CC)C(=O)N(C)CC(=O)N(C)[C@@H](C(C)C)C(=O)N[C@@H](C(C)C)C(=O)N(C)[C@@H](CC(C)C)C(=O)N[C@@H](C)C(=O)N[C@H](C)C(=O)N(C)[C@@H](CC(C)C)C(=O)N(C)[C@@H](CC(C)C)C(=O)N(C)[C@@H](C(C)C)C(=O)N1C`, for which the Activity in the data set listed under Homo sapiens [2] was 126%. Further, the fold change (FC) in the data set listed under Homo sapiens [3] is 2.

Consider `C/C=C/C[C@@H](C)[C@@H](O)[C@H]1C(=O)N[C@@H](C(C)C)C(=O)N(C)CC(=O)N(C)[C@@H](CC(C)C)C(=O)N[C@@H](C(C)C)C(=O)N(C)[C@@H](CC(C)C)C(=O)N[C@@H](C)C(=O)N[C@H](C)C(=O)N(C)[C@@H](CC(C)C)C(=O)N(C)[C@@H](CC(C)C)C(=O)N(C)[C@@H](C(C)C)C(=O)N1C`, for which the Papp in data set [1] turned out to be 4.4 ×10⁻⁶ cm/s.

Regarding `C/C=C/C[C@@H](C)[C@@H](O)[C@H]1C(=O)N[C@@H](CC)C(=O)N(C)CC(=O)N(C)[C@@H](CC(C)C)C(=O)N[C@@H](C(C)C)C(=O)N(C)[C@@H](CC(C)C)C(=O)N[C@@H](C)C(=O)N[C@H](C)C(=O)N(C)[C@@H](CC(C)C)C(=O)N(C)[C@@H](CC(C)C)C(=O)N[C@@H](C(C)C)C(=O)N1C`, the Papp in data set [1] is 0.42 ×10⁻⁶ cm/s.
